According to the OPERA property sets (Mansouri et al. 2018):
Values after ≈ are worked out from the molar mass of the structure shown. Where a SMILES comes first, the peptide text is derived from it.

| SMILES | solubility (25 °C) [mM] | solubility (20 °C) [mM] | also measured |
| --- | --- | --- | --- |
| CC(C)C[C@H](N)C(=O)N[C@@H](C)C(=O)NCC(=O)O (H-Leu-Ala-Gly-OH) |  |  | solubility: 127 mM (≈ 33000 µg/mL) |
| N#CNC(N)=S | 989 (≈ 100000 µg/mL) |  |  |
| CCC(Br)(Br)C(=O)O |  |  | solubility: 134 mM (≈ 33000 µg/mL) |
| CCCOCC(O)COCCC |  |  | solubility: 454 mM (≈ 80000 µg/mL) |
| O=[N+]([O-])c1ccc(O)c([N+](=O)[O-])c1-c1ccccc1 | 0.192 (≈ 50 µg/mL) |  |  |
| Cc1ncnc2nc[nH]c12 |  | 1490 (≈ 200000 µg/mL) |  |
| CCCCCCCCOC(=O)c1ccc(O)cc1 |  |  | solubility (30 °C): 0.0599 mM (≈ 15 µg/mL) |
| O=C(c1ccccc1)N(O)c1cccc2ccccc12 |  |  | solubility: 0.494 mM (≈ 130 µg/mL) |
| O=S(=O)(CCCl)CCS(=O)(=O)CCCl |  |  | solubility (30 °C): 35.6 mM (≈ 10100 µg/mL) |
| O=C(O)c1ccc(O)cc1O | 37.5 (≈ 5780 µg/mL) |  |  |
| Sc1nc2ccccc2o1 | 6.61 (≈ 1000 µg/mL) |  |  |
| CCN(CC)C(C#N)c1ccccc1 (stereo unspecified) |  |  | solubility (30 °C): 106 mM (≈ 20000 µg/mL) |
| O=c1ccc(Br)ccc1O | 0.274 (≈ 55 µg/mL) |  |  |
| CCCCn1cnc2c1c(=O)n(C)c(=O)n2C |  |  | solubility (30 °C): 15.6 mM (≈ 3690 µg/mL) |
| Cc1cc(C(O)(c2ccc(N)cc2)c2ccc(N)cc2)ccc1N |  | 0.939 (≈ 300 µg/mL) |  |
| COc1cc(C(C)=O)ccc1O |  | 30.1 (≈ 5000 µg/mL) |  |
| COC1CC1 | 763 (≈ 55000 µg/mL) |  |  |
| CC(C)(O)CCl |  | 1450 (≈ 157000 µg/mL) |  |
| CCCCOCCC(=O)OC | 51.2 (≈ 8200 µg/mL) |  |  |
| NC(=O)NCl |  |  | solubility: 2120 mM (≈ 200000 µg/mL) |
| CCCOC(=O)c1ccc(O)c(I)c1 |  |  | solubility (30 °C): 0.206 mM (≈ 63 µg/mL) |
| ClCCOCOCCCl |  | 45.1 (≈ 7800 µg/mL) |  |

| SMILES | solubility (25 °C) [mM] | solubility (20 °C) [mM] | also measured |
| --- | --- | --- | --- |
| CC1CCC2(CCC(C)O2)O1 (stereo unspecified) |  | 356 (≈ 55600 µg/mL) |  |
| O=C(O)C(S)CS (stereo unspecified) |  |  | solubility: 579 mM (≈ 80000 µg/mL) |
| CCOC(=O)N[C@@H](C=O)[C@@H](O)[C@H](O)[C@H](O)CO |  |  | solubility: 1300 mM (≈ 327000 µg/mL) |
| O=C1COc2ccccc2N1 |  | 2.68 (≈ 400 µg/mL) |  |
| CC(=O)OOC(=O)c1ccccc1 | 3.55 (≈ 639 µg/mL) |  |  |
| CCCCOC(=O)CCO |  |  | solubility: 51.3 mM (≈ 7500 µg/mL) |
| CCC(CC)C(=O)N(CC)CC |  |  | solubility: 81.7 mM (≈ 14000 µg/mL) |
| CC(C)(C)S(=O)(=O)C(C)(C)C |  | 60.6 (≈ 10800 µg/mL) |  |
| CCOc1nsc(N)n1 |  | 223 (≈ 32400 µg/mL) |  |
| CCOCCC(=O)OC | 847 (≈ 112000 µg/mL) |  |  |
| Cc1cc(C)c([PH](=O)O)c(C)c1 | 1.62 (≈ 299 µg/mL) |  |  |
| NC(=O)C[C@H](NC(=O)CCl)C(=O)O |  |  | solubility: 479 mM (≈ 100000 µg/mL) |
| COCc1ccccc1 |  | 24.6 (≈ 3000 µg/mL) |  |
| CCCOC(=O)c1cccnc1 | 57.5 (≈ 9500 µg/mL) |  |  |
| Cc1c(Cl)c(O)c(Cl)c(Cl)c1Cl | 0.025 (≈ 6.15 µg/mL) |  |  |
| CC(C)COC(=O)c1ccc(N)cc1 |  | 1.14 (≈ 220 µg/mL) |  |
| O=C(O)c1cccs1 | 58.5 (≈ 7500 µg/mL) |  |  |
| CC(=O)CC1=NCCS1 |  | 69.8 (≈ 10000 µg/mL) |  |
| O=S(=O)(CCCl)CCCl |  | 31.4 (≈ 6000 µg/mL) |  |
| CCOP(=O)(OCC)C(Cl)(Cl)Cl | 17.6 (≈ 4500 µg/mL) |  |  |
| O=C(CCCCC(=O)NCCO)NCCO |  | 2580 (≈ 600000 µg/mL) |  |
| O=c1[nH]c2cncnc2[nH]1 |  | 30.6 (≈ 4170 µg/mL) |  |

| SMILES | solubility (25 °C) [mM] | solubility (20 °C) [mM] | also measured |
| --- | --- | --- | --- |
| CC(=O)C1(C)CO1 (stereo unspecified) |  |  | solubility (23 °C): 2400 mM (≈ 240000 µg/mL) |
| Cc1ncnc2c(O)cccc12 |  | 2.5 (≈ 400 µg/mL) |  |
| O=C(OC1CCNCC1)c1ccccc1 |  |  | solubility: 48.7 mM (≈ 10000 µg/mL) |
| CCCCCS |  | 1.5 (≈ 156 µg/mL) |  |
| Cc1cc(Cl)cc(Cl)c1O | 9.04 (≈ 1600 µg/mL) |  |  |
| O=c1[nH]ccc2cccnc12 |  | 72 (≈ 10500 µg/mL) |  |
| CCCS | 25 (≈ 1900 µg/mL) |  |  |
| O=c1cc[nH]cn1 |  | 3850 (≈ 370000 µg/mL) |  |
| CCCCCSS(=O)CCCCC (stereo unspecified) |  |  | solubility: 0.674 mM (≈ 150 µg/mL) |
| COC(=O)CCCCCCCCC(=O)OC |  |  | solubility: 0.521 mM (≈ 120 µg/mL) |
| Cc1[nH]c(=O)[nH]c(=O)c1CC(=O)O | 4.89 (≈ 900 µg/mL) |  |  |
| NCCCCCCNCCCCCCCCCCC(=O)O |  | 4.99 (≈ 1500 µg/mL) |  |
| CCCCC(O)CN(N=Cc1ccc([N+](=O)[O-])o1)C(N)=O (stereo unspecified) | 0.268 (≈ 80 µg/mL) |  |  |
| CC(=O)NCC(=O)Nc1ccccc1 |  | 27.1 (≈ 5200 µg/mL) |  |
| O=C(O)CC(O)C(=O)O (stereo unspecified) |  | 5790 (≈ 777000 µg/mL) |  |
| CCC(NC(=N)N)C(=O)O (stereo unspecified) |  |  | solubility: 138 mM (≈ 20000 µg/mL) |
| Oc1nc2ccccc2nc1O | 1.54 (≈ 250 µg/mL) |  |  |
| CCCCCCCCCNC(=O)c1cccnc1 | 0.725 (≈ 180 µg/mL) |  |  |
| C[C@H](NC=O)C(=O)O (racemic) |  | 1020 (≈ 120000 µg/mL) |  |
| CCCCC(CC)COC(=O)NS(N)(=O)=O (stereo unspecified) | 3.96 (≈ 1000 µg/mL) |  |  |
| CCN[C@@H](C)C(=O)O (racemic) | 4490 (≈ 526000 µg/mL) |  |  |
| CCCCOC(=O)c1c(C(=O)O)cccc1[N+](=O)[O-] |  | 1.91 (≈ 510 µg/mL) |  |

| SMILES | solubility (25 °C) [mM] | solubility (20 °C) [mM] | also measured |
| --- | --- | --- | --- |
| NCCc1ccc(O)c([N+](=O)[O-])c1 |  |  | solubility: 45.7 mM (≈ 8330 µg/mL) |
| CCc1c[nH]c(=O)[nH]c1=O | 11.4 (≈ 1600 µg/mL) |  |  |
| O=[N+]([O-])c1ccccc1CO |  | 32.7 (≈ 5000 µg/mL) |  |
| COc1ccccc1C(N)=O |  | 16.5 (≈ 2500 µg/mL) |  |
| O=C(O)c1cccc2ncccc12 |  | 2.1 (≈ 364 µg/mL) |  |
| OCc1ccccc1CO | 1140 (≈ 158000 µg/mL) |  |  |
| CCCC(N)C(=O)O (racemic) |  |  | solubility (23 °C): 805 mM (≈ 94300 µg/mL) |
| CCC(NC=O)C(=O)O (stereo unspecified) | 256 (≈ 33600 µg/mL) |  |  |
| CCCCCOC(=O)c1ccc(O)cc1 |  |  | solubility (30 °C): 0.154 mM (≈ 32 µg/mL) |
| N#CCCNC(CCC(=O)O)C(=O)O (stereo unspecified) |  |  | solubility (26 °C): 49.9 mM (≈ 10000 µg/mL) |
| NC(=O)NC(=O)C=CC(=O)O |  | 12 (≈ 1900 µg/mL) |  |
| CCCCCCCCOC(=O)c1cc(O)c(O)c(O)c1 |  | 0.127 (≈ 36 µg/mL) |  |
| CC(=O)Nc1ccc(/C=N/NC(N)=S)cc1 |  | 0.372 (≈ 88 µg/mL) |  |
| CCOC(CC(C)O)OCC (stereo unspecified) |  |  | solubility: 1230 mM (≈ 200000 µg/mL) |
| O=C(O)CNC(=S)SCC(=O)O | 50 (≈ 10500 µg/mL) |  |  |
| O=c1ccc(Br)cc(Br)c1O | 0.314 (≈ 88 µg/mL) |  |  |
| CCCCOC(=O)CCOCC | 23 (≈ 4000 µg/mL) |  |  |
| O=C(O)CCNC(=O)Nc1ccc([N+](=O)[O-])cc1 |  | 1.97 (≈ 500 µg/mL) |  |
| Oc1cncc2cccnc12 |  | 22 (≈ 3220 µg/mL) |  |
| CC(C)C[C@H](N)C(=O)N[C@H](CCC(N)=O)C(=O)O | 27 (≈ 7000 µg/mL) |  |  |
